# In patent US8759376B2, “Isoxazole and isothiazole compounds useful in the treatment of inflammation” (The Feinstein Institute for Medical Research, priority 2003, dated 2014):
# Where “and” joins values, the source holds several entries; their conditions need not be identical. Equal values may be shown once.
# What was measured:
# [1] = test system: TNF; assay: TNF production by LPS-stimulated primary human macrophages (ELISA); format: cell-based; settings: LPS 100 ng/ml, 4 hours
# Experimental: Human macrophage cultures were prepared as follows. Buffy coats were collected from the blood of healthy individual donors to the Long Island Blood Bank Services (Melville, N.Y.). Primary blood mononuclear cells were isolated by density-gradient centrifugation through Ficoll/Hypaque (Pharmacia, N.J.), suspended (8×10^6 cells/ml) in RPMI 1640 medium supplemented with 10% heat inactivated human serum (Gemini Bio-Products, Inc., Calabasas, Calif.), and seeded in flasks (PRIMARIA; Beckton and Dickinson Labware, Franklin Lakes, N.J.). After incubation for 2 hours at 37° C., adherent cells were washed extensively, treated briefly with 10 mM EDTA, detached, resuspended (10^6 cells/ml) in RPMI medium (10% human serum), supplemented with human macrophage colony stimulating factor (MCSF; Sigma Chemical Co., St. Louis, Mo.; 2 ng/ml), and seeded onto 24-well tissue culture plates (PRIMARIA; Falcon) (10^6 cells/well). Cells were allowed to differentiate for 7 days in the presence of MCSF. On day 7 the cells were washed 3 times with 1× Dulbecco's phosphate buffered saline (PBS, GibcoBRL, Life Technologies, Rockville, Md.), fresh medium devoid of MCSF was added, and experiments performed as indicated. […]
# [2] = test system: female BALB/c mice; assay: Localized Shwartzman reaction model, ear immunostaining; format: in vivo; settings: i.p.; ears 5 hours after LPS challenge; compared to vehicle-treated animals
# Experimental: The localized Shwartzman reaction was performed as previously described (C. Sunderkotter, S. Seeliger, F. Schonlau, J. Roth, R. Hallmann, T. A. Luger, C. Sorg, and G. Kolde. 2001. Different pathways leading to cutaneous leukocytoclastic vasculitits in mice. Exp Dermatol 10:391-404.). Briefly, female BALB/c mice (22-26 g, Taconic) were injected with saline or Compound VIf (i.p., at the indicated doses), and then injected s.c. into the pinnae of the ear with 20 Φg LPS (preparatory dose). One day later, mice (4 per group) were injected either with vehicle (saline) or […] (i.p., at the indicated doses) 15 min prior to challenge with LPS (150 Φg, i.p.) To generate a localized vasculitic reaction. Five hours later, mice were sacrificed by CO2 asphyxiation, and the ears were excised and cut in half longitudinally. Ears were flash frozen in liquid nitrogen and stored at −80 EC. Each experiment was repeated twice. […]
# After immunostaining, slides were counterstained with H&E, dehydrated, and mounted with permount. For enumeration of positive staining, three fields per section (three sections per sample) were assessed at 200× magnification and scored as the average number (+SD) of VCAM-1 or E-selectin positive capillaries/vessels. […]
# [3] = test system: female Swiss Webster mice; assay: Carrageenan air pouch model, pouch fluid cytokines by ELISA; format: in vivo; settings: 12 mg/kg i.p.
# [4] = test system: α-bungarotoxin sensitive receptor on the RAW 264.7 cells; format: cell-based, murine
compound,measurement,setting,value
c1ccc(C2CC(c3cccnc3)=NO2)nc1 (centres unmarked) [(VI d)],TNF release,[1],inhibited TNF release in a dose dependent manner
same,efficacy on TNF release compared with control (nicotine),[1],comparable to or better than that of the control
c1cncc(C2=NOC(c3ccncc3)C2)c1 (centres unmarked) [Compound (VI f)],E-selectin protein expression by the endothelium,[2],reduced
same,VCAM-1 protein expression by the endothelium,[2],reduced
same,reduction of pouch fluid levels of MCP-1,[3],20% and 30%
same,reduction of pouch TNF levels,[3]; compared to vehicle-treated controls,40%
same,"pouch TNF level, % of control",[3]; control 100±7%,60±11%
α-bungarotoxin,effect on the inhibition of LPS-mediated TNFα release by compound (VI f),[4],partially abrogated the inhibitory effect
